# Literature values, collected in publication PMC2742322 (Bioorganic & medicinal chemistry letters, 2008).
# Molecular target: μ-opioid receptor (Cavia porcellus, UniProt A0ACM8Q262)
# Details: read-out: IC50^μ (GPI); functional bioactivity
# μ-opioid receptor, sequence (A0ACM8Q262 1-400): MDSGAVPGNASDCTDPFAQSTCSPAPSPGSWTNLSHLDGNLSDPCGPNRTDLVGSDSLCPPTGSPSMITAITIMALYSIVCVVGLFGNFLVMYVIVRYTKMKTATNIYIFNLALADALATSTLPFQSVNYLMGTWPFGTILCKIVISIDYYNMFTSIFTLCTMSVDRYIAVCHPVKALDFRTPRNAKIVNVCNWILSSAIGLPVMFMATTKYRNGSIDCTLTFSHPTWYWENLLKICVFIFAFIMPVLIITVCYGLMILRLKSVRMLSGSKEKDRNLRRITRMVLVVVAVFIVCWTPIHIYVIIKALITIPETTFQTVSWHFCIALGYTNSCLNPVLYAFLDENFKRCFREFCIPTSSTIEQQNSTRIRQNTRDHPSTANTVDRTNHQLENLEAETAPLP
substance,measurement,value
Tyr^1-Pro^2-Trp^3-Phe^4-NH2 [EM-1],IC50,9.7 ± 2.21 nM
